Test results from patent EP4592296A1, “NOVEL TETRAHETEROCYCLE COMPOUND” (Idience Co., Ltd., priority 2022, dated 2024).

Key:
[1] = system: AsPC-1 pancreatic cancer (KRAS G12D mutation) cells; assay: Cell proliferation assay (CellTiter-Glo cell viability); format: cell-based; conditions: AsPC-1 cells, CellTiter-Glo 2.0
Method: (§1) Cell viability test of test compounds in AsPC-1 pancreatic cancer (KRAS G12D mutation) or SW480 colon cancer (KRAS G12V mutation) cells for 72 hours
(§2) The reference compound Staurosporine was purchased from Sigma-Aldrich (Saint Louis, […]), and CellTiter-Glo® 2.0 Luminescent cell viability assay reagent (cat# G9243) was purchased from Promega (Madison, WI). AsPC-1 and SW480 cell lines were purchased from the American Type Culture Collection (Manassas, VA). AsPC-1 cells were cultured in RPMI-1640 (ATCC, cat#30-2001), and SW480 cells were cultured in DMEM (ATCC cat#30-2002), supplemented with 10% FBS (Sigma-Aldrich, cat#F2442) and 100 µg/mL penicillin-streptomycin (Sigma-Aldrich, cat#P4333). Cells were cultured at 37 °C in a humidified atmosphere of 5 % CO2 and 95 % air.
(§3) • 1. The test compound and reference compound Staurosporine were dissolved in DMSO solution to prepare 20 mM (test compound) and 10 mM (reference compound Staurosporine) in the Source Plate, and diluted 3-fold and 10 doses with DMSO. • 2. Ten volumes of 125 nL test compound or 25 nL reference compound from the Source Plate were dispensed into wells of a 384-well culture plate (VWR, cat#82050-076) using an Echo 655. • 3. 25 µL of culture medium including 2000 AsPC-1 or SW480 cells was dispensed into each 384-well cell culture plate. • 4. Cells were cultured with compounds at 37 °C, 5 % CO2for 72 hours. • 5. 25 µL of CellTiter-Glo 2.0 reagent was added to each well of the plate. • 6. The contents were mixed in an orbital shaker for 2 minutes and the luminescence signal was stabilized at room temperature for 15 minutes. • 7. Luminescence signals were measured with an Envision 2104 Multilabel Reader (PerkinElmer, Santa Clara, CA), and the number of viable cells was determined by quantifying the ATP present in each culture medium. • 8. IC50 values were calculated based on the sigmoidal dose-response equation in the GraphPad Prism 4 program.

KRAS^G12D = molecular target: T1, KRAS^G12D (Homo sapiens, UniProt P01116, G12D); assay: KRAS nucleotide exchange assay (SOS1-mediated, HTRF); format: biochemical; conditions: KRAS 20 nM, SOS1 12.5 nM, labeled GTP 0.15 µM, 60 min preincubation
T1 construct: GST-tagged KRAS WT or mutant proteins (amino acids 2-169)
Text: (§4) Evaluation of the inhibitory effect of compounds on SOS1-mediated nucleotide exchange activity of KRAS^WT, KRAS^G12D, and KRAS^G12V mutants
(§5) A method to monitor SOS1-mediated exchange of unlabeled KRAS-bound GDP and fluorescently labeled GTP, based on energy transfer between the donor Tb cryptate-labeled GST antibody and the acceptor DY-647P1 GTP when they are in close proximity.
(§6) • GST-tagged KRAS WT or mutant proteins (amino acids 2-169), • SOS1(amino acids 564-1049), • Labeled GTP (GTP-DY-647P1), • Assay Buffer (20 mM HEPES pH 7.4, 150 mM NaCl, 5 mM MgCl2, 1 mM DTT, 0.05% BSA, 0.0025% NP40)
(§7) • 1. KRAS protein was diluted with assay buffer to 1.5 times the final concentration, mixed with Tb cryptate anti-GST antibody, and 10 µL was added to each assay well (final concentration was 20 nM for KRAS^WT, KRAS^G12D, and KRAS^G12V). • 2. The compound was dissolved in DMSO and then diluted to prepare 100 times the final concentration. • 3. Compounds were dispensed into assay wells using an ECHO acoustic dispenser (Beckman), gently mixed with the KRAS/Ab mixture, and incubated for 60 minutes. • 4. SOS1 and labeled GTP were mixed and diluted to 3 times the final concentration with assay buffer, and 5 µL of the solution was added to the assay well to initiate the reaction (final concentration of labeled GTP was 0.15 µM, final concentration of SOS1 was 7.5 nM in WT, 12.5 nM in G12D, and 50 nM in G12V). Blank wells contained only assay buffer and labeled GTP. • 5. The reaction was monitored at Ex/Em=(337/665; 337/620) using a Pherastar Plate Reader (BMG). • 6. The HTRF signal was analyzed approximately 25 minutes after the start of the reaction (G12V reacted for 60 minutes). • 7. Nucleotide exchange activity was expressed as a percentage difference compared to the DMSO reaction value, and the IC50 value was calculated based on the four-parameter logistic equation in GraphPad 4.0 software. HTRF signal = ems 665/ems 620∗10000 [formula]

KRAS^WT = molecular target: T2, KRAS^WT (Homo sapiens, UniProt P01116); assay: as above; format: biochemical; conditions: KRAS 20 nM, SOS1 7.5 nM, labeled GTP 0.15 µM
T2 construct: GST-tagged KRAS WT or mutant proteins (amino acids 2-169)
Text: as §4, §5, §6, §7

[2] = system: SW480 colon cancer (KRAS G12V mutation) cells; assay: Cell proliferation assay (CellTiter-Glo cell viability); format: cell-based; conditions: Homo sapiens, 72 hours, CellTiter-Glo 2.0
Method: as §1, §2, §3

KRAS^G12V = molecular target: T3, KRAS^G12V (Homo sapiens, UniProt P01116, G12V); assay: KRAS nucleotide exchange assay (SOS1-mediated, HTRF); format: biochemical; conditions: KRAS 20 nM, SOS1 50 nM, labeled GTP 0.15 µM, reacted 60 minutes
T3 construct: GST-tagged KRAS WT or mutant proteins (amino acids 2-169)
Text: as §4, §5, §6, §7

KRAS G12C = molecular target: T4, KRAS G12C (Homo sapiens, UniProt P01116, G12C); assay: as above; format: biochemical; conditions: conditions for G12C not described
T4 construct: GST-tagged KRAS WT or mutant proteins (amino acids 2-169)

KRAS G13D = molecular target: T5, KRAS G13D (Homo sapiens, UniProt P01116, G13D); assay: as above; format: biochemical; conditions: conditions for G13D not described
T5 construct: GST-tagged KRAS WT or mutant proteins (amino acids 2-169)
T5 sequence (P01116 2-169 isoform P01116-2 G13D): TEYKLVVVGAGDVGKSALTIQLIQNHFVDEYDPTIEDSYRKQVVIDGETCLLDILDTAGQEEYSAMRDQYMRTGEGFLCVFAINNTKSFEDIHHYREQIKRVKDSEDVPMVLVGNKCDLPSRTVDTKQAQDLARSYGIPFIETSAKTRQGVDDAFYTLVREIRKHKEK

T1 sequence (P01116 2-169 isoform P01116-2 G12D): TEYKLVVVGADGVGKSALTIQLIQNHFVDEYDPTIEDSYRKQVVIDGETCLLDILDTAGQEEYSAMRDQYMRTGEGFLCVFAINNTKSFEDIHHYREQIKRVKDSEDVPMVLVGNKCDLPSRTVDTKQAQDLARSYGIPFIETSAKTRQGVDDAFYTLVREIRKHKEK
T3 sequence (P01116 2-169 isoform P01116-2 G12V): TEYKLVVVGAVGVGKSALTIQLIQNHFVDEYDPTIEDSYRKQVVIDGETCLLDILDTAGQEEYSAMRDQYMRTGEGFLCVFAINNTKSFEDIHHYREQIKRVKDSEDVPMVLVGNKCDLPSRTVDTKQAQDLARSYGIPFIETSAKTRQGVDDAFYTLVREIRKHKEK
T4 sequence (P01116 2-169 isoform P01116-2 G12C): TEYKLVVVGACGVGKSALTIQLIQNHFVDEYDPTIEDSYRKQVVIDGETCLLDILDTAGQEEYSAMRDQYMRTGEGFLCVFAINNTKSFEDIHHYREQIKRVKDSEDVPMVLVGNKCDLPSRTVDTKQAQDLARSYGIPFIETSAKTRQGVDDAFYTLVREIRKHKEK
T2 sequence (P01116 2-169 isoform P01116-2): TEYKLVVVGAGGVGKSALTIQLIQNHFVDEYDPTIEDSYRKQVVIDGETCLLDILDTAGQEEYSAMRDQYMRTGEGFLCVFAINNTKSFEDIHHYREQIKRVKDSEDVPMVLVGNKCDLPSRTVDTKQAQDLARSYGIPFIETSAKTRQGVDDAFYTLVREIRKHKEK

Row | SMILES | IC50 ([1]; Homo sapiens, ASPC1, 72 h) [nM] | IC50 (KRAS^G12D) [nM] | other results
1 | Nc1nc2c(-c3c(Cl)c4c5c(nc(OC[C@@]67CCCN6C[C@H](F)C7)nc5c3F)N3CCNC[C@@H]3CCO4)ccc(F)c2s1 [Example 3, 4-((14aS)-11-chloro-9-fluoro-7-(((2R,7aS)-2-fluorotetrahydro-1H-pyrrolizin-7a(5H)-yl)methoxy)-1,3,4,13,14,14a-hexahydro-2H-pyrazino[1',2':5,6][1,5]oxazocino[4,3,2-de]quinazolin-10-yl)-7-fluorobenzo[d]thiazol-2-amine] | 2000 to 20000 | 7.84 | –
2 | N#Cc1c(N)sc2c(F)ccc(-c3c(Cl)c4c5c(nc(OC[C@@]67CCCN6C[C@H](F)C7)nc5c3F)N3CCCCC[C@@H]3CO4)c12 [Example 11a, 2-amino-4-(3-chloro-1-fluoro-13-(((2R,7aS)-2-fluorotetrahydro-1H-pyrrolizin-7a(5H)-yl)methoxy)-5a,6,7,8,9,10-hexahydro-5H-azepino[2',1':3,4][1,4]oxazepino[5,6,7-de]quinazolin-2-yl)-7-fluorobenzo[b]thiophene-3-carbonitrile] | 2000 to 20000 | – | –
3 | N#Cc1c(N)sc2c(F)ccc(-c3c(Cl)c4c5c(nc(OC[C@@]67CCCN6C[C@H](F)C7)nc5c3F)N3CCCOC[C@H]3CO4)c12 (single isomer, unassigned) [Example 12a] | – | – | IC50 ([1]; 72 hours): 2000 to 20000 nM
4 | CCc1c(F)ccc2cc(O)cc(-c3nc4c5c(nc(OC[C@@]67CCCN6C[C@H](F)C7)nc5c3F)N3CCNC[C@@H]3CCO4)c12 [Example 1, 5-ethyl-6-fluoro-4-((S)-1-fluoro-12-(((2R,7aS)-2-fluorotetrahydro-1H-pyrrolizin-7a(5H)-yl)methoxy)-6,6a,7,8,9,10-hexahydro-5H-4-oxa-3,8,10a,11,13-pentaazabenzo[4,5]cycloocta[1,2,3-de]naphthalen-2-yl)naphthalen-2-ol] | > 20000 | 5.95 | IC50 (KRAS^WT): 6.5 nM
5 | Nc1nc2c(-c3c(Cl)c4c5c(nc(OC[C@@]67CCCN6C[C@H](F)C7)nc5c3F)N3CCCOC[C@H]3CO4)ccc(F)c2s1 [Example 7, 4-((14aS)-12-chloro-10-fluoro-8-(((2R,7aS)-2-fluorotetrahydro-1H-pyrrolizin-7a(5H)-yl)methoxy)-4,5,14,14a-tetrahydro-1H,3H-[1,4]oxazepino[3',4':3,4][1,4]oxazepino[5,6,7-de]quinazolin-11-yl)-7-fluorobenzo[d]thiazol-2-amine] | < 2000 | – | –
6 | N#Cc1c(N)sc2c(F)ccc(-c3c(Cl)c4c5c(nc(OC[C@@]67CCCN6C[C@H](F)C7)nc5c3F)N3CCCOC[C@H]3CO4)c12 (single isomer, unassigned) [Example 12b] | < 2000 | – | –
7 | Oc1cc(Cl)c(C2CC2)c(-c2nc3c4c(nc(OCC56CCCN5CC(F)C6)nc4c2F)N2CCNCC2CCO3)c1 [Example 4, 3-chloro-4-cyclopropyl-5-((S)-1-fluoro-12-(((2R,7aS)-2-fluorotetrahydro-1H-pyrrolizin-7a(5H)-yl)methoxy)-6,6a,7,8,9,10-hexahydro-5H-4-oxa-3,8,10a,11,13-pentaazabenzo[4,5]cycloocta[1,2,3-de]naphthalen-2-yl)phenol] | – | 52.5 | –
8 | N#Cc1c(N)sc2c(F)ccc(-c3c(Cl)c4c5c(nc(OC[C@@]67CCCN6C[C@H](F)C7)nc5c3F)N3CCCCC[C@H]3CO4)c12 [Example 11b, 2-amino-4-(3-chloro-1-fluoro-13-(((2R,7aS)-2-fluorotetrahydro-1H-pyrrolizin-7a(5H)-yl)methoxy)-5a,6,7,8,9,10-hexahydro-5H-azepino[2',1':3,4][1,4]oxazepino[5,6,7-de]quinazolin-2-yl)-7-fluorobenzo[b]thiophene-3-carbonitrile] | < 2000 | – | –
9 | C#Cc1c(F)ccc2cc(O)cc(-c3nc4c5c(nc(OC[C@@]67CCCN6C[C@H](F)C7)nc5c3F)N3CCNC[C@@H]3CCO4)c12 [Example 2, 5-ethynyl-6-fluoro-4-((S)-1-fluoro-12-(((2R,7aS)-2-fluorotetrahydro-1H-pyrrolizin-7a(5H)-yl)methoxy)-6,6a,7,8,9,10-hexahydro-5H-4-oxa-3,8,10a,11,13-pentaazabenzo[4,5]cycloocta[1,2,3-de]naphthalen-2-yl)naphthalen-2-ol] | > 20000 | 2.75 | IC50 [2]: > 20000 nM; IC50 (KRAS^G12V): 2.89 nM
10 | CCc1c(F)ccc2cc(O)cc(-c3nc4c5c(nc(OC[C@@]67CCCN6C[C@H](F)C7)nc5c3F)N3CCNC[C@@H]3CC(C)O4)c12 (stereo partly drawn) [Example 5, 5-ethyl-6-fluoro-4-((6aS)-1-fluoro-12-(((2R,7aS)-2-fluorotetrahydro-1H-pyrrolizin-7a(5H)-yl)methoxy)-5-methyl-6,6a,7,8,9,10-hexahydro-5H-4-oxa-3,8,10a,11,13-pentaazabenzo[4,5]cycloocta[1,2,3-de]naphthalen-2-yl)naphthalen-2-ol] | – | 12.5 | –
11 | Nc1nc2c(-c3c(Cl)c4c5c(nc(OC[C@@]67CCCN6C[C@H](F)C7)nc5c3F)N3CCCCCC3CO4)ccc(F)c2s1 (stereo partly drawn) [Example 6, 4-(3-chloro-1-fluoro-13-(((2R,7aS)-2-fluorotetrahydro-1H-pyrrolizin-7a(5H)-yl)methoxy)-5a,6,7,8,9,10-hexahydro-5H-azepino[2',1':3,4][1,4]oxazepino[5,6,7-de]quinazolin-2-yl)-7-fluorobenzo[d]thiazol-2-amine] | < 2000 | 5.9 | IC50 (KRAS G12C): 2.36 nM; IC50 (KRAS G13D): 11.1 nM; IC50 (KRAS^G12V): 5.9 nM
